Where two headings read alike, the source gives them in different places.
Experiments:
[1] = molecular target: T1, EGFR L858R/T790M/C797S (BaF3-LTC cells) (Homo sapiens, UniProt P00533, C797S/L858R/T790M); assay: EGFR degradation HTRF assay, BaF3-LTC cells; format: cell-based
T1 construct: expressed in transfected cells; host or cells: BaF3
In short: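 EGFR remaining after a 16 h, 37 °C exposure (8 doses, 5-fold steps from 10 uM final, 0.2% DMSO) was quantified by HTRF antibodies in cell lysate. Percent inhibition relative to DMSO control was fitted by four-parameter logistic to give DC50; Dmax denotes maximal degradation.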

[2] = test system: EGFR Del19/T790M/C797S (H1975-clone #28); assay: EGFR degradation HTRF assay, H1975-clone #28 DTC cells; format: cell-based
In short: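 Cells were dosed on day 2 with an 8-point, 5-fold dilution series starting at 10 uM final and incubated 16h at 37° C. After lysis for 1 hour, HTRF antibodies were added overnight at room temperature and the plate was read at 665/620 nm. Degradation was normalised to DMSO wells and fitted for DC50 and Dmax.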

[3] = BaF3-LTC cells; EGFR degradation, IC50 (DC50) from curve fit; read-out: DC50(nM) BaF3-LTC
[4] = BaF3-LTC cells; maximum percentage of inhibition (degradation); read-out: Dmax (%) BaF3-LTC
[5] = H1975 # 28 DTC cells; EGFR degradation, IC50 (DC50) from curve fit; read-out: DC50(nM) H1975 # 28 DTC
[6] = H1975 # 28 DTC cells; maximum percentage of inhibition (degradation)

T1 sequence (P00533 25-1210 T790M/C797S/L858R): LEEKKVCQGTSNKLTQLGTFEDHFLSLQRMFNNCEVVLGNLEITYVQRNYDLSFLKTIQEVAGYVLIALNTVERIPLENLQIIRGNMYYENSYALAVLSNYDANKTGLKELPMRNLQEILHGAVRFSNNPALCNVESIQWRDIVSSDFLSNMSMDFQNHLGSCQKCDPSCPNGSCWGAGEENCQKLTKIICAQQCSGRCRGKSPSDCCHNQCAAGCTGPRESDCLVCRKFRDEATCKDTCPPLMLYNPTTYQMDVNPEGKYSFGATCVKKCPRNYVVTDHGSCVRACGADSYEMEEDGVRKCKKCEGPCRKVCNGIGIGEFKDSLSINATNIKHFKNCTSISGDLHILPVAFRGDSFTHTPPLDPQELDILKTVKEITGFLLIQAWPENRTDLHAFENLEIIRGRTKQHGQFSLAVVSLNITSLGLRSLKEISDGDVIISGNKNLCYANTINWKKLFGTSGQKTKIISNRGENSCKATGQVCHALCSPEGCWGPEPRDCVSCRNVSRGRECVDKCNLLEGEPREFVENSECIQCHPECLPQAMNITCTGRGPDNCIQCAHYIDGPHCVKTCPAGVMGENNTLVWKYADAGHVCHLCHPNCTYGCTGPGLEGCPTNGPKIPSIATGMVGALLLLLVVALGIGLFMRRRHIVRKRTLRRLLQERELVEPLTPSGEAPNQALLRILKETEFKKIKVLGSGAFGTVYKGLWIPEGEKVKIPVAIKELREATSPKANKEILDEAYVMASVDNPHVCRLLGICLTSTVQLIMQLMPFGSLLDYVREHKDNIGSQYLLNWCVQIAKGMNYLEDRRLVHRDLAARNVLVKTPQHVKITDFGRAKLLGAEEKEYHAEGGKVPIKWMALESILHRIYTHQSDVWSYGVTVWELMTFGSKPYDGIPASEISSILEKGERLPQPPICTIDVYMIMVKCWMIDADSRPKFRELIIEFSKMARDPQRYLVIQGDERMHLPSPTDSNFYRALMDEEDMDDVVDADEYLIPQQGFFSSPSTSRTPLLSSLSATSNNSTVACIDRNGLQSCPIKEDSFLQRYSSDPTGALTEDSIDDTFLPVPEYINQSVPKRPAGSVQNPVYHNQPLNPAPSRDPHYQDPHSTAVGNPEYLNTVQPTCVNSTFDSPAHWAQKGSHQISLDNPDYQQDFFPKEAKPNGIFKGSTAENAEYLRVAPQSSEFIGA

Row | DC50 [1, 3] | Dmax [1, 4] | DC50 [2, 5] | SMILES | Dmax (%) H1975 # 28 DTC [2, 6] | DC50 ([1]; read-out: DC50(nM) BaF3-LTC; BaF3-LTC cells; EGFR degradation, IC50 (DC50) from curve fit) | Dmax ([1]; read-out: Dmax (%) BaF3-LTC, BaF3-LTC cells; maximum percentage of inhibition (degradation)) | DC50 ([2]; read-out: DC50(nM) H1975 # 28 DTC; H1975 # 28 DTC cells; EGFR degradation, IC50 (DC50) from curve fit)
1 | 2.49 nM | 91.9% | 0.662 nM | CCOc1cc(N2CCC(N3CCN(CCc4cc5oc(=O)n(C6CCC(=O)NC6=O)c5cc4C)CC3)CC2)c(CC)cc1Nc1ncc(Br)c(Nc2ccc3c(=O)n(CC)ncc3c2P(C)(C)=O)n1 (stereo not drawn) [Example 554, 3-(6-(2-(4-(1-(4-((5-bromo-4-((5-(dimethylphosphoryl)-2-ethyl-1-oxo-1,2-dihydrophthalazin-6-yl)amino)pyrimidin-2-yl)amino)-5-ethoxy-2-ethylphenyl)piperidin-4-yl)piperazin-1-yl)ethyl)-5-methyl-2-oxobenzo[d]oxazol-3(2H)-yl)piperidine-2,6-dione] | 67.4% | – | – | –
2 | 9.65 nM | 94.1% | 1.19 nM | CCc1cc(Nc2ncc(Br)c(Nc3ccc4nc(C)ccc4c3P(C)(C)=O)n2)c(OC)cc1N1CCC(N2CCN(C(=O)Cc3cccc4c3n(C)c(=O)n4C3CCC(=O)NC3=O)CC2)CC1 (stereo not drawn) [Example 697, 3-(4-(2-(4-(1-(4-((5-bromo-4-((5-(dimethylphosphoryl)-2-methylquinolin-6-yl)amino)pyrimidin-2-yl)amino)-2-ethyl-5-methoxyphenyl)piperidin-4-yl)piperazin-1-yl)-2-oxoethyl)-3-methyl-2-oxo-2,3-dihydro-1H-benzo[d]imidazol-1-yl)piperidine-2,6-dione] | 71.39% | – | – | –
3 | 8.64 nM | 89.5% | 0.632 nM | CCc1cc(Nc2ncc(Br)c(Nc3ccc4nc(C)ccc4c3P(C)(C)=O)n2)c(OC2CC2)cc1N1CCC(N2CCN(CCc3cc4oc(=O)n(C5CCC(=O)NC5=O)c4cc3F)CC2)CC1 (stereo not drawn) [Example 601, 3-(6-(2-(4-(1-(4-((5-bromo-4-((5-(dimethylphosphoryl)-2-methylquinolin-6-yl)amino)pyrimidin-2-yl)amino)-5-cyclopropoxy-2-ethylphenyl)piperidin-4-yl)piperazin-1-yl)ethyl)-5-fluoro-2-oxobenzo[d]oxazol-3(2H)-yl)piperidine-2,6-dione] | 77.35% | – | – | –
4 | 3.36 nM | 97.7% | 0.751 nM | CCc1cc(Nc2ncc(Br)c(Nc3ccc4nc(C)ccc4c3P(C)(C)=O)n2)c(OC)cc1N1CCC(N2CCN(C(=O)CC3CN(c4cc(F)c([C@H]5CCC(=O)NC5=O)c(F)c4)C3)CC2)CC1 (single isomer, unassigned) [Example 573] | 81.91% | – | – | –
5 | 23.2 nM | 74.8% | 2.08 nM | CCc1ccc2c(P(C)(C)=O)c(Nc3nc(Nc4cc(CC)c(N5CCC(N6CCN(CCc7ccc([C@H]8CCC(=O)NC8=O)cc7)CC6)CC5)cc4OC)ncc3Br)ccc2n1 [Example 654, (R)-3-(4-(2-(4-(1-(4-((5-bromo-4-((5-(dimethylphosphoryl)-2-ethylquinolin-6-yl)amino)pyrimidin-2-yl)amino)-2-ethyl-5-methoxyphenyl)piperidin-4-yl)piperazin-1-yl)ethyl)phenyl)piperidine-2,6-dione] | 66.53% | – | – | –
6 | – | – | – | CCOc1cc(N2CCC(N3CCN(CCc4cc5oc(=O)n(C6CCC(=O)NC6=O)c5cc4F)CC3)CC2)c(CC)cc1Nc1ncc(Br)c(Nc2ccc3nc(CC)ncc3c2P(C)(C)=O)n1 (stereo not drawn) [Example 565, 3-(6-(2-(4-(1-(4-((5-bromo-4-((5-(dimethylphosphoryl)-2-ethylquinazolin-6-yl)amino)pyrimidin-2-yl)amino)-5-ethoxy-2-ethylphenyl)piperidin-4-yl)piperazin-1-yl)ethyl)-5-fluoro-2-oxobenzo[d]oxazol-3(2H)-yl)piperidine-2,6-dione] | 74.32% | 3.92 nM | 93.2% | 0.626 nM

From patent publication US20230265116A1, “DEGRADATION OF (EGFR) BY CONJUGATION OF EGFR INHIBITORS WITH E3 LIGASE LIGAND AND METHODS OF USE” (BEIGENE, LTD., priority 2020, published 2023)
